Test results as given in US20180250320A1, “COMPOSITIONS AND METHODS FOR TREATING SOLID TUMORS” (THE JOHNS HOPKINS UNIVERSITY, priority 2015, published 2018).
Read-outs that look alike come from different tables or passages of the source.

Legend:
[1] = test system: VEGF-defensin ID8 ovarian cells; assay: Ascites fluid volume in the ID8 model of ovarian cancer; format: in vivo; conditions: mice drained at week 6 after injection; same regimen; vs untreated (Mock) or single agent
Description: Mice were injected with 2.5×10^6VEGF-defensin ID8 ovarian cells i.p. Three days later, mice began treatment with 0.5 mg/kg 5-azacytidine (AZA) for 5 days per week. The next week the mice were treated with either 2 mg/kg MS275 or ITF 5 days a week, and the treatments alternated by week until the end of the experiment. Mice developed ascites fluid by week 4.5, and were drained and the ascites volume was measured. Ascites volume from mice drained at week 6 after injection.

[2] = cited from earlier work
[3] = test system: Human lung cancer cell lines H23 and A549; assay: Expression of anti-viral genes and cancer testis antigens after AZA priming and HDACi treatment; format: cell-based; conditions: for expression of anti-viral genes: FIG. 4A; for expression of cancer testis antigens: FIG. 4B
Text: FIGS. 4A and 4B. […] Human lung cancer cell lines H23 and A549 were primed by treatment with AZA (red line) for 5 days followed by 3-5 days of treatment with the HDACi. For many genes, addition of an HDACi to AZA increases gene expression above levels attained by AZA alone.

[4] = HDACi in combination with AZA: AZA priming 5 days, then 3-5 days HDACi

| SMILES | ascites fluid volume [1] | solubility ([2]; 5% Tween 80 in water) | solubility ([2]; 5% dextrose in water) | solubility ([2]; N-methyl-2-pyrrolidone) | solubility ([2]; acetone) | solubility ([2]; dimethylsulfoxide (DMSO)) | solubility ([2]; ethanol/water (50/50)) | solubility ([2]; ethanol) | solubility ([2]; methyl ketone) | solubility ([2]; normal saline) | solubility ([2]; polyethylene glycol) | solubility ([2]; propylene glycol) | solubility ([2]; water-saturated octanol) | solubility ([2]; water) | expression of anti-viral genes [3, 4] | expression of cancer testis antigens [3, 4] | expression of anti-viral genes ([3]; HDACi used as single agent) | expression of cancer testis antigens ([3]; HDACi used as single agent) |
| --- | --- | --- | --- | --- | --- | --- | --- | --- | --- | --- | --- | --- | --- | --- | --- | --- | --- | --- |
| Nc1ncn([C@@H]2O[C@H](CO)[C@@H](O)[C@H]2O)c(=O)n1 [AZA, 4-amino-1-β-D-ribofuranozyl-s-triazin-2(1H)-one] | significantly reduced ascites volume compared to Mock | sparingly soluble | sparingly soluble | sparingly soluble | insoluble | soluble | slightly soluble | insoluble | insoluble | sparingly soluble | slightly soluble | slightly soluble | sparingly soluble | sparingly soluble | – | – | – | – |
| Nc1ccccc1NC(=O)c1ccc(CNC(=O)OCc2cccnc2)cc1 [Entinostat] | – | – | – | – | – | – | – | – | – | – | – | – | – | – | increase expression | increase expression | NOT | NOT |
| CCN(CC)Cc1ccc2cc(COC(=O)Nc3ccc(C(=O)NO)cc3)ccc2c1.Cl [Givinostat, diethyl-[6-(4-hydroxycarbamoyl-phenylcarbamoyloxymethyl)-naphthalen-2-ylmethyl]-ammonium chloride] | – | – | – | – | – | – | – | – | – | – | – | – | – | – | increase expression | increase expression | NOT | NOT |
